Test [1] deals with T1, Purified recombinant ADAMTS-7 (rat prodomain/human catalytic domain, SEQ ID No. 01 or 02) (Homo sapiens, UniProt Q9UKP4).
T1 construct: rat ADAMTS-7 signal peptide + prodomain (rat 1-217, Q1EHB3) (N); 2xStrep tag (C); 6xHis tag (C); made in house; host or cells: Expi293 cells
T1 sequence (Q9UKP4 237-537): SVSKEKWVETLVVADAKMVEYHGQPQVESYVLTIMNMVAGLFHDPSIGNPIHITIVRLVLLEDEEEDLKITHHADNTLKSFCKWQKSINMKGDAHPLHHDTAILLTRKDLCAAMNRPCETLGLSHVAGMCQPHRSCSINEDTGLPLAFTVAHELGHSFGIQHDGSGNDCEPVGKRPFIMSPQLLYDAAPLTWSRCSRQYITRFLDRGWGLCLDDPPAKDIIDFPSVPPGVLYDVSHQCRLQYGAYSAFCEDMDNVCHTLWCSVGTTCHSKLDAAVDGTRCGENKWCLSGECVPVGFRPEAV
Put plainly: Assay for ADAMTS-7 enzymatic activity (FRET substrate cleavage). It is filed as biochemical. The conditions noted are these: FRET substrate SEQ ID No. 11, 120 min at 32° C.; read-out: ADAMTS7-IC50. Put shortly: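 About 20 nM enzyme in 20 mM HEPES pH 8.0, 150 mM NaCl, 5 mM CaCl2, 0.004% Brij and 10 μM ZnCl2 was mixed with compound in DMSO and a QXL520-quenched FRET peptide from thrombospondin-1 (275-289). After 120 min at 32 °C, fluorescence was read at 485/520 nm. IC50 came from percent inhibition versus concentration.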

In a further test the target is T2, ADAMTS4 (Homo sapiens, UniProt O75173).
T2 construct: purchased R&D 4307-AD
T2 sequence (O75173 213-685 limits assumed): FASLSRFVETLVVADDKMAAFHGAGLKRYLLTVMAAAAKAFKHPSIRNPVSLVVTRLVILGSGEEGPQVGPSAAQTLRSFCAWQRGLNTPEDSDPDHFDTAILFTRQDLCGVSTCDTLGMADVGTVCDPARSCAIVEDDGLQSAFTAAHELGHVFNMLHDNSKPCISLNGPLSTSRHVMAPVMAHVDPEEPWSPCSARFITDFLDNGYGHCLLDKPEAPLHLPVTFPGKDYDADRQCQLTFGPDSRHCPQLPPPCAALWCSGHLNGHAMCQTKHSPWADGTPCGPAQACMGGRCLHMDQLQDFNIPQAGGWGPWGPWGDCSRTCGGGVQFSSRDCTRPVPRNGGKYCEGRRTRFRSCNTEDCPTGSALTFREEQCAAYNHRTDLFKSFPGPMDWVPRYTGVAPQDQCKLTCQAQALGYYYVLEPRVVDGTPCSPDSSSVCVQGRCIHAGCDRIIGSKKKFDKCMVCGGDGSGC
As to the kind of experiment: Selectivity assay for ADAMTS-7 modulators (FRET), ADAMTS4. The conditions noted are these: 50 nM enzyme (R&D 4307-AD), 1 μM Dabcyl/Edans FRET substrate, 120 min at 32° C. In kind it is biochemical. In a few lines:
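Enzyme in 50 mM Tris pH 7.5, 150 mM NaCl, 10 mM CaCl2, 0.05% Brij, preincubated with compound in DMSO; reaction started with FRET substrate. Fluorescence increase read after 120 min at 32° C; IC50 from percent inhibition versus compound concentration.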

A word on the IC50: it is the point on the concentration scale where inhibition reaches its midpoint. On to `O=C1NC(=O)C(CNC(=O)c2cnn(-c3ccc(F)cc3)n2)(c2nccs2)N1` (stereo not drawn) [Example 114, ent-N-{[2,5-dioxo-4-(1,3-thiazol-2-yl)imidazolidin-4-yl]methyl}-2-(4-fluorophenyl)-2H-1,2,3-triazole-4-carboxamide], for which the IC50 amounted to 0.015 µM in test [1] and 1.4 µM against ADAMTS4.

For `CC(C)C1(CNC(=O)c2cnn(-c3cc(F)c(F)c(F)c3)n2)NC(=O)NC1=O` (stereo not drawn) [Example 117, ent-N-[(4-isopropyl-2,5-dioxoimidazolidin-4-yl)methyl]-2-(3,4,5-trifluorophenyl)-2H-1,2,3-triazole-4-carboxamide], the IC50 in test [1] was determined as 0.02 µM; on ADAMTS4 it was 3.3 µM.

For `O=C1NC(=O)[C@](CNC(=O)c2cnn(-c3cnsc3)n2)(C2CC2)N1` [Example 132, N-{[(4R)-4-cyclopropyl-2,5-dioxoimidazolidin-4-yl]methyl}-2-(1,2-thiazol-4-yl)-2H-1,2,3-triazole-4-carboxamide], the IC50 in test [1] turned out to be 0.23 µM; at ADAMTS4, 7.4 µM.

For `O=C1NC(=O)[C@](CNC(=O)c2cnn(-c3ncc(F)cc3F)n2)(C2CC2)N1` [Example 134, N-{[(4R)-4-cyclopropyl-2,5-dioxoimidazolidin-4-yl]methyl}-2-(3,5-difluoropyridin-2-yl)-2H-1,2,3-triazole-4-carboxamide], the figures for the IC50 (in test [1]; on ADAMTS4) were 0.19 µM and 6.2 µM, respectively.

On to `O=C1NC(=O)C(CNC(=O)c2cnn(-c3ccc(F)cc3)n2)(c2ncsc2C(F)(F)F)N1` (stereo not drawn) [Example 136, ent-N-({2,5-dioxo-4-[5-(trifluoromethyl)-1,3-thiazol-4-yl]imidazolidin-4-yl}methyl)-2-(4-fluorophenyl)-2H-1,2,3-triazole-4-carboxamide], for which the IC50 amounted to 0.027 µM in test [1] and 3.5 µM at ADAMTS4.

Take `Cn1ccnc1C1(CNC(=O)c2cnn(-c3ccccc3)n2)NC(=O)NC1=O` (stereo not drawn) [Example 142, ent-N-{[4-(1-methyl-1H-imidazol-2-yl)-2,5-dioxoimidazolidin-4-yl]methyl}-2-phenyl-2H-1,2,3-triazole-4-carboxamide]: the IC50 in test [1] was 0.004 µM; on ADAMTS4 it was 0.32 µM.

For the compound `Cn1ccnc1C1(CNC(=O)c2cnn(-c3cc(F)c(F)c(F)c3)n2)NC(=O)NC1=O` (stereo not drawn) [Example 146, ent-N-{[4-(1-methyl-1H-imidazol-2-yl)-2,5-dioxoimidazolidin-4-yl]methyl}-2-(3,4,5-trifluorophenyl)-2H-1,2,3-triazole-4-carboxamide], the IC50 in test [1] amounted to 0.003 µM; on ADAMTS4 it was 0.108 µM.

In the case of `O=C1NC(=O)C(CNC(=O)c2cnn(-c3ccc(F)cc3)n2)(c2cscn2)N1` (stereo not drawn) [Example 148, ent-N-{[2,5-dioxo-4-(1,3-thiazol-4-yl)imidazolidin-4-yl]methyl}-2-(4-fluorophenyl)-2H-1,2,3-triazole-4-carboxamide], the IC50 in test [1] is 0.012 µM; at ADAMTS4, 2.5 µM.

For the compound `O=C1NC(=O)[C@](CNC(=O)c2cnn(-c3ccc(F)cc3Cl)n2)(C2CC2)N1` [Example 151, 2-(2-chloro-4-fluorophenyl)-N-{[(4R)-4-cyclopropyl-2,5-dioxoimidazolidin-4-yl]methyl}-2H-1,2,3-triazole-4-carboxamide], the results for the IC50 (in test [1]; on ADAMTS4) were 0.32 µM and 17 µM, respectively.

For `O=C1NC(=O)[C@](CNC(=O)c2cnn(-c3ccc(Cl)cc3F)n2)(C2CC2)N1` [Example 160, 2-(4-chloro-2-fluorophenyl)-N-{[(4R)-4-cyclopropyl-2,5-dioxoimidazolidin-4-yl]methyl}-2H-1,2,3-triazole-4-carboxamide], the IC50 in test [1] was 0.06 µM; against ADAMTS4, 1 µM.

Take `O=C1NC(=O)[C@](CNC(=O)c2cnn(-c3ccc(Cl)cc3Cl)n2)(C2CC2)N1` [Example 161, N-{[(4R)-4-cyclopropyl-2,5-dioxoimidazolidin-4-yl]methyl}-2-(2,4-dichlorophenyl)-2H-1,2,3-triazole-4-carboxamide]: the values for the IC50 (in test [1]; against ADAMTS4) were 0.13 µM and 7.1 µM, respectively.

Turning to “ent-N-({4-[1-(difluoromethyl)-1H-pyrazol-5-yl]-2,5-dioxoimidazolidin-4-yl}methyl)-2-(4-fluorophenyl)-2H-1,2,3-triazole-4-carboxamide [Example 129]”, the half-maximal inhibitory concentration (IC50) in test [1] worked out at 0.018 µM; against ADAMTS4 it was 1.7 µM.

(Values after patent publication US20230027985A1, “SUBSTITUTED HYDANTOINAMIDES AS ADAMTS7 ANTAGONISTS” (Bayer Aktiengesellschaft, priority 2019, published 2023).)
